# From patent US10201507B2, “Modulators of intracellular chloride concentration for treating fragile X syndrome” (NEUROCHLORE, priority 2012, dated 2019)
# What was measured:
# [1] = test system: hippocampal CA3 pyramidal neurons; assay: Whole-cell recordings of spontaneous excitatory postsynaptic currents (sEPSCs) at P15 after maternal pretreatment; assay type: in vivo, mouse; settings: FXS offspring P15, maternal pretreatment, −70 mV
# Procedure: Standard whole-cell recordings were performed in coronal neocortical rat or mouse brain slices at room temperature (20-22° C.) from the soma of hippocampal CA3 neurons using an EPC-10 (HEKA Elektronik, Germany) amplifier and filtered at 3-10 kHz. The internal solution contained (in mM): 130 K-gluconate, 10 Na-gluconate, 4 NaCl, 4 MgATP, 4 phosphocreatine, 10 HEPES, and 0.3 GTP (pH 7.3 with KOH). Biocytin (final concentration 0.3-0.5%) was added to the pipette solution to label the neurons from which recordings were obtained. Neurons were visualized by using infrared DIC video microscopy. Spontaneous postsynaptic currents were recorded for […] at the reversal potentials for GABAergic currents (-70 mV). […] Stored data were analyzed using the Mini Analysis 6.0.3 (Synaptosoft Inc., […].) and Origin (MicroCal, Northampton, Mass.) software. […] Data are expressed as mean±S.E.M. To test whether depolarizing actions of GABA were associated with neuronal excitation, the effect of the GABAA receptor agonist isoguvacine was tested. […] To test whether maternal treatment with bumetanide before delivery switches the action of GABA from excitatory to inhibitory in offsprings at P15, pregnant females were treated orally 1 day before delivery with bumetanide (2-2.5 mg/kg in drinking water) and juvenile offspring neurons recorded at P15. […]
# FXS mice = assay: Isolation-induced ultrasonic vocalizations (USVs) at P8 after maternal pretreatment; assay type: in vivo, mouse
# Source text: To induce ultrasonic vocalizations, mouse pups were isolated individually from their mother on postnatal day 8, and were placed into an isolation box (23×28×18 cm) located inside a sound attenuating isolation cubicle (54×57×41 cm; Coulbourn Instruments, Allentown, Pa., USA), and evaluated for ultrasonic vocalizations during a three minute test. An ultrasound microphone (Avisoft UltraSoundGate Condenser microphone capsule […] Bioacoustics, Berlin, Germany), placed in the roof of the box, was sensitive to frequencies of 10 to 250 kHz. Vocalizations were recorded using the Avisoft Recorder software (version 4.2) with a sampling rate of 250 kHz in 16 bit format. For acoustical analysis, recordings were transferred to SASLab Pro (version 5.2; Avisoft Bioacoustics) and a fast Fourier transformation was conducted (512 FFT-length, 100% frame, Hamming window and 75% time window overlap). The accuracy of call detection was verified manually by an educated user. A Pearson correlation coefficient was computed to assess the relationship between Automatic and Manual analysis. There was 0.99 correlations between the two variables. A t postnatal day 8, waveform patterns of calls were examined in 45 sonograms from 4 groups of mice (WT, FXS, WT pretreated, FXS pretreated). Each call was identified as one of 10 distinct categories, and only the sonograms where mice emitted at least 50 calls were used for this evaluation. To test whether depolarizing actions of GABA were associated with neuronal excitation, the effect of the GABAA receptor agonist isoguvacine was tested. […] To test whether maternal treatment with bumetanide before delivery switches the action of GABA from excitatory to inhibitory in offsprings at P15, pregnant females were treated orally 1 day before delivery with bumetanide (2-2.5 mg/kg in drinking water) and juvenile offspring neurons recorded at P15. […] Therefore, excitatory actions of GABA during delivery produce long term deleterious effects on electrophysiological parameters of FXS juvenile neurons. In FXS mice, GABAergic inputs are excitatory and contribute to hyperexcitability of the network. Bumetanide decreases [Cl^-]i and consequently reduces contribution of excitatory GABAergic inputs in the overall network activity. Isolation and Ultrasonic vocalizations were induced in mice to determine behavioral effect of Bumetanide in a model of FXS. An increased probability of emitting downward and chevron calls in FXS pups than age matched WT (P8). This was rescued by maternal bumetanide pretreatment (FIG. 4, table 3). Therefore, elevated [Cl^-]i levels during delivery are involved in the pathogenesis of Fragile X syndrome.
# [2] = test system: child with Fragile X syndrome; assay: Clinical case study, efficacy scales (ABC, GRAM, CGI); assay type: in vivo, human; settings: after 90 days, 0.5 mg twice a day
# Procedure: This example is a case reports presenting the treatment by bumetanide of a child with Fragile X syndrome. Starting from the 5 Jan. 2011, the child received bumetanide twice a day (0.5 mg morning and 0.5 mg evening) during three months. Several biological tests were made at baseline (D0) and then after 7 days (D7), one month (M1), two months (M2) and three months (M3) of treatment. They checked orthostatic hypotension, allergy, cramps, asthenia, diarrhea, myalgia, arthralgia, vertigo and nausea. Blood tests included γ-glutamyltransferase, transaminases, alkaline phosphatases, glycemia, uric acid and creatine, in addition to blood Na^+ and K^+. Efficacy of the treatment was measured at baseline (D0) and after three months of treatment (M3) using the GRAM scale ([…] Regulation Adaptation Modulation) for analyzing the dysregulation of the activity in a child; the ABC scale (Aberrant Behavior Checklist) for assessing problem behaviors of children and adults with mental retardation; and the CGI scale (Clinical Global Impression) for assessing the clinical amelioration in a patient following a therapeutic treatment.
# [3] = test system: child with Fragile X syndrome; assay: Clinical case study, side effects, blood tests, blood ions and weight; assay type: in vivo, human
# Procedure: This example is a case reports presenting the treatment by bumetanide of a child with Fragile X syndrome.
# Starting from the 5 Jan. 2011, the child received bumetanide twice a day (0.5 mg morning and 0.5 mg evening) during three months. Several biological tests were made at baseline (D0) and then after 7 days (D7), one month (M1), two months (M2) and three months (M3) of treatment. They checked orthostatic hypotension, allergy, cramps, asthenia, diarrhea, myalgia, arthralgia, vertigo and nausea. Blood tests included γ-glutamyltransferase, transaminases, alkaline phosphatases, glycemia, uric acid and creatine, in addition to blood Na^+ and K^+.
smiles,measurement,setting,value
CCCCNc1cc(C(=O)O)cc(S(N)(=O)=O)c1Oc1ccccc1 [bumetanide],ongoing activity and frequency of glutamatergic sEPSCs (in words),[1],significantly reduced
same,"Chevron calls, isolation-induced USVs",FXS mice; P8 FXS mice,0.6 ± 0.1 (n = 13)
same,"Downward calls, isolation-induced USVs",FXS mice; P8 FXS mice,10.2 ± 1.4 (n = 13)
same,Increased probability of downward and chevron calls (in words),FXS mice; P8 FXS pups,rescued
same,"Chevron calls, isolation-induced USVs",FXS mice; P8 WT mice,0.5 ± 0.3 (n = 9)
same,"Downward calls, isolation-induced USVs",FXS mice; P8 WT mice,13.5 ± 2.8 (n = 9)
same,CGI result,[2],2
same,ABC results (Aberrant Behavior Checklist),[2]; baseline 41,27
same,GRAM results,[2]; baseline 56,31
same,Weight,[3]; 1 month (M1) of treatment,25.1 kg
same,blood K^+,[3]; 1 month (M1) of treatment,4.3 mmol/L
same,blood Na^+,[3]; 1 month (M1) of treatment,139 mmol/L
same,Weight,[3]; 2 months (M2) of treatment,25.4 kg
same,blood K^+,[3]; 2 months (M2) of treatment,3.5 mmol/L
same,blood Na^+,[3]; 2 months (M2) of treatment,140 mmol/L
same,Weight,[3]; 3 months (M3) of treatment,25.7 kg
same,blood K^+,[3]; 3 months (M3) of treatment,3.6 mmol/L
same,blood Na^+,[3]; 3 months (M3) of treatment,139 mmol/L
same,Natremia (in words),[3]; 3 months of treatment,unaltered
same,body weight (in words),[3]; 3 months of treatment,not altered
same,blood K^+ (in words),"[3]; 3 months of treatment, inferior limit 3.5 mmol/1",reduced to a value close to the inferior limit
same,Weight,[3]; 7 days (D7) of treatment,25.2 kg
same,blood K^+,[3]; 7 days (D7) of treatment,3.6 mmol/L
same,blood Na^+,[3]; 7 days (D7) of treatment,143 mmol/L
same,side effect in clinical examination,"[3]; orthostatic hypotension, allergy, cramps, asthenia, diarrhea, myalgia, arthralgia, vertigo, nausea, 3 months",no side effect
same,Conventional blood tests,"[3]; γ-glutamyltransferase, transaminases, alkaline phosphatases, glycemia, uric acid, creatine, 3 months",unaffected
